Test [1] has as its target T1, purified wild type MGL (wt-MGLL 6H-11-313) (Homo sapiens, UniProt Q99685).
T1 sequence (Q99685 1-303): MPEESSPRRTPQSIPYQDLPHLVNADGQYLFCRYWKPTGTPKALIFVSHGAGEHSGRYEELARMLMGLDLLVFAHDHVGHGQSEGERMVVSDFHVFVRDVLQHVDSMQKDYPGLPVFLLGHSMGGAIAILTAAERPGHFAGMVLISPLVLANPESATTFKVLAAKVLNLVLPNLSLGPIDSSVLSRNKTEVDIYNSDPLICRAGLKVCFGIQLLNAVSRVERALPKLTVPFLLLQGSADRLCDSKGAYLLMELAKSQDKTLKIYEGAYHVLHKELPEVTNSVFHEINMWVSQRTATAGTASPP

For a further test, the target named is T2, mutant MGL (Homo sapiens, UniProt Q99685, L169S/L176S).
T2 sequence (Q99685 1-303 L169S/L176S): T1 sequence (Q99685 1-303) with L169S, L176S
In words: MGL ThermoFluor assay - mutant. The test is classed as binding. Background: DSF heats the sample and reads unfolding from a dye or from intrinsic fluorescence.

[2] abbreviates: ThermoFluor, compound concentration measured by qNMR, read-out: MGL mutant ThermoFluor qKd (using qNMR conc.).
[3] abbreviates: ThermoFluor concentration-response, read-out: MGL mutant ThermoFluor Kd.
[4] abbreviates: ThermoFluor, compound concentration measured by qNMR, read-out: MGL mutant ThermoFluor qKd (μM) (using qNMR conc.).
[5] abbreviates: ThermoFluor thermal stability binding assay, read-out: MGL mutant ThermoFluor Kd.
The mark [6] stands for this setting: compound concentration measured by qNMR, read-out: MGL mutant ThermoFluor qKd (using qNMR conc.).

Each structure is given as a SMILES string. Positions count from the first letter of the chain named. Like-named read-outs stand apart in the source and are kept apart here. Bounds are passed on as bounds.

Here are results for 20 molecules from US8362000B2, “Azetidinyl diamides as monoacylglycerol lipase inhibitors” (Janssen Pharmaceutica NV, priority 2009, dated 2013).

Turning to `O=C(c1ccc(OCC(F)(F)F)cc1)N1CC(N2CCN(C(=O)c3nccs3)CC2)C1` [Cpd 730], in test [1], it took 238 nM to reach half-maximal inhibition (IC50). Also, on mutant MGL (setting [2]), the Kd came to 0.146 µM.

In turn, `Cc1cc(-n2ccc3cc(C(=O)N4CC(N5CCN(C(=O)c6ccccc6)CC5)C4)ccc32)ccn1` [Cpd 630, 1-(2-Methylpyridin-4-yl)-5-({3-[4-(phenylcarbonyl)piperazin-1-yl]azetidin-1-yl}carbonyl)-1H-indole] gave a half-inhibitory concentration (IC50) in test [1] of 714 nM. Moreover, the Kd at mutant MGL (setting [2]) turned out to be 0.195 µM.

The molecule `Cc1c(Cc2ccc(C(F)(F)F)cc2)cccc1C(=O)N1CC(N2CCN(C(=O)c3ccns3)CC2)C1` [Cpd 1014] came in with a concentration for half-maximal inhibition (IC50) in test [1] of 257 nM. Besides, the Kd on mutant MGL (setting [3]) came out at 0.903 µM.

Regarding `O=C(c1ccc[nH]1)N1CCN(C2CN(C(=O)c3cc4ccc(C(F)(F)F)nc4[nH]3)C2)CC1` [Cpd 1447], the IC50 in test [1] is greater than 16700 nM. The Kd at mutant MGL (setting [4]) was found to be 3.33 µM.

In test [1], `Cc1cc(-c2cccc(C(F)(F)F)c2)ccc1C(=O)N1CCN(C2CN(C(=O)c3nccs3)C2)CC1` [Cpd 1260] returned an IC50 of 862 nM. Besides, the Kd at mutant MGL (setting [3]) stood at 0.221 µM.

Take `COc1ccc2cc(C(=O)N3CC(N4CCN(C(=O)c5nccs5)CC4)C3)c(C)nc2c1` [Cpd 845]: in test [1], the 50% inhibitory concentration (IC50) was determined as 6420 nM. Further, the Kd on mutant MGL (setting [2]) was 1.62 µM.

Regarding `Cc1nc2ccc(Cl)cc2cc1C(=O)N1CC(N2CCN(C(=O)c3nccs3)CC2)C1` [Cpd 835], half-maximal inhibition in test [1] (IC50) required 4700 nM. The Kd on mutant MGL (setting [2]) was 2.45 µM.

For the molecule `O=C(c1cccc(CNc2ccccc2F)c1)N1CC(N2CCN(C(=O)c3nccs3)CC2)C1` [Cpd 1005], the IC50 in test [1] is 237 nM. Besides, the Kd at mutant MGL (setting [3]) is 0.083 µM.

`O=C(COc1ccc(C(=O)N2CC(N3CCN(C(=O)c4nccs4)CC3)C2)cc1)Nc1cccc(C(F)(F)F)c1` [Cpd 1041]: in test [1], the IC50 amounted to 19 nM. The Kd on mutant MGL (setting [2]) was 0.397 µM.

`Cc1nc(-c2ccncc2)sc1C(=O)N1CC(N2CCN(C(=O)c3nccs3)CC2)C1` [Cpd 1272]: inhibition in test [1] was half-maximal at 1610 nM (IC50). In addition, the Kd on mutant MGL (setting [2]) is 0.399 µM.

In test [1], `O=C(c1ccc(-c2cccc(C(F)(F)F)c2)cc1)N1CC(N2CCN(C(=O)c3ccno3)CC2)C1` [Cpd 1118] showed a half-maximal inhibitory concentration (IC50) of 16 nM. On mutant MGL (setting [4]), the Kd was 0.053 µM.

In turn, `O=C(c1ccc(-n2nccc2-c2ccc(F)cc2)cc1)N1CC(N2CCN(C(=O)c3nccs3)CC2)C1` [Cpd 1412] yielded a 50% inhibitory concentration (IC50) in test [1] of 87 nM. On mutant MGL (setting [5]), the Kd was 0.241 µM.

On to `Cc1c(C(=O)N2CC(N3CCN(C(=O)c4cscn4)CC3)C2)[nH]c2ccc(Cl)cc12` [Cpd 755], for which, in test [1], the IC50 is 468 nM. Besides, the Kd on mutant MGL (setting [3]) amounted to 0.328 µM.

In test [1], `O=C(c1ccc2c(c1)ncn2C1CCC(F)(F)CC1)N1CC(N2CCN(C(=O)c3nccs3)CC2)C1` [Cpd 759] showed an IC50 of 579 nM. Further, the Kd at mutant MGL (setting [6]) turned out to be 0.037 µM.

`O=C(c1ccccc1)N1CCN(C2CN(C(=O)c3cc4cc(-c5ccccc5)ccc4o3)C2)CC1` [Cpd 605] gave an IC50 in test [1] of 1860 nM. Further, the Kd on mutant MGL (setting [5]) was 1.89 µM.

In turn, `Cc1cc(C(=O)N2CC(N3CCN(C(=O)c4nccs4)CC3)C2)c(C)n1Cc1ccc(S(N)(=O)=O)cc1` [Cpd 1042] had an IC50 in test [1] of 5270 nM. On mutant MGL (setting [2]), the Kd was 5 µM.

Turning to `O=C(c1nccs1)N1CCN(C2CN(C(=O)c3cccc4[nH]c(Cc5ccccc5)nc34)C2)CC1` [Cpd 980], the IC50 in test [1] was determined as 6790 nM. The Kd on mutant MGL (setting [5]) came to 5 µM.

`O=C(c1ccc(Oc2ccc(Br)cn2)cc1)N1CC(N2CCN(C(=O)c3cscn3)CC2)C1` [Cpd 765] came in with an IC50 in test [1] of 667 nM. The Kd on mutant MGL (setting [3]) amounted to 3.09 µM.

In the case of `O=C(c1sc2cc(C(F)(F)F)ccc2c1Cl)N1CC(N2CCN(C(=O)C(F)(F)F)CC2)C1` [Cpd 656, 1-(1-{[3-Chloro-6-(trifluoromethyl)-1-benzothiophen-2-yl]carbonyl}azetidin-3-yl)-4-(trifluoroacetyl)piperazine], it took 8 nM to reach half-maximal inhibition in test [1] (IC50). In addition, the Kd at mutant MGL (setting [2]) turned out to be 0.101 µM.

Molecule `O=C(c1ccc2c(ccn2Cc2ccncc2)c1)N1CC(N2CCN(C(=O)c3nccs3)CC2)C1` [Cpd 1046] showed an IC50 in test [1] of 288 nM. The Kd at mutant MGL (setting [6]) was 0.064 µM.

What is called IC50 is the point on the concentration scale where inhibition reaches its midpoint. Read a low IC50 as higher potency.
